According to patent publication US7754709B2 (Solvay Pharmaceuticals BV, priority 2003, dated 2010):
Where “and” joins values, the source holds several entries; their conditions need not be identical. Identical values can stand only once.

Experiments:
Type in all cases: cell-based
[1] = molecular target: T1, 17β-hydroxysteroid dehydrogenase type 1 (Homo sapiens, UniProt P14061); experiment: Inhibition of 17β-HSD type 1 in MCF-7 cells stably expressing the isoenzyme (HPLC, tritium labeled estrone); settings: 2 nM estrone; for inhibition at 1 µM: MCF7, 1 μM compound; for inhibition at 1 µM / inhibition at 10 µM: read-out: % Inhibition of the 17β-HSD enzyme type 1 (HSD1); for inhibition at 10 µM: MCF7, 10 μM compound
T1 construct: expressed in transfected cells; host or cells: MCF-7
T1 sequence (P14061 1-328): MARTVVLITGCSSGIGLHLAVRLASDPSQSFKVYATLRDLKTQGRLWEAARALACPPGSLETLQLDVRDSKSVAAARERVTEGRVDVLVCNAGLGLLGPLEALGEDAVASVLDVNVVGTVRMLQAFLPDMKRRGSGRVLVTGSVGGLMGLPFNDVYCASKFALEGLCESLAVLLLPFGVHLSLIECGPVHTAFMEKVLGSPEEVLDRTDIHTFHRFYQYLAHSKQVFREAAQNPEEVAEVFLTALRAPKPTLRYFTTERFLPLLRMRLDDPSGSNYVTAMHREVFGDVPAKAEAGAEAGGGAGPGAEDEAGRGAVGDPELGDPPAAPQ
Excerpt: (§1) Biological Testing Materials and Methods 1. Inhibition of the 17β-hydroxysteroid dehydrogenase type 1, type 2 and type 3 enzyme
(§2) The compounds were screened in respect of 17β-HSD enzyme activity in vitro on established M CF-7 cell lines, each stably expressing one of the respective 17β-HSD isoenzymes. The interconversion of substrate by each isoenzyme and the 17β-HSD inhibiting activity of chemical compounds in these cell lines were detected by HPLC system.
(§3) Varying amounts of the test compounds were incubated in the growth medium of the 17β-HSD expressing cells together tritium labeled substrate (2 nM estrone for 17β-HSD type 1; 2 nM estradiol for 17β-HSD type 2; and 2 nM androstenedione for 17β-HSD type 3). The medium samples were removed after exact incubation time and the reaction is stopped by trichloroacetic acid (TCA). The samples were analyzed by HPLC-coupled flow scintillation analysis.
(§4) For each enzyme type, the HSD-inhibiting activity of an individual test compound was calculated by comparing the conversion of a control sample without any test compound (referred to as “Negative Control”) to the (reduced) conversion of the test sample containing the particular compound to be tested (referred to as “Test Sample”).
(§5) Two concentrations of each compound were used. The number of the compound refers to the numbers indicated in the Experimental Section.

[2] = molecular target: T2, 17β-hydroxysteroid dehydrogenase type 2 (Homo sapiens, UniProt P37059); experiment: Inhibition of 17β-HSD type 2 in MCF-7 cells stably expressing the isoenzyme (HPLC, tritium labeled estradiol); settings: 2 nM estradiol, read-out: % Inhibition of the 17β-HSD enzyme type 2 (HSD2); for inhibition at 1 µM: MCF7, 1 μM compound; for inhibition at 10 µM: MCF7, 10 μM compound
T2 construct: expressed in transfected cells; host or cells: MCF-7
T2 sequence (P37059 1-387): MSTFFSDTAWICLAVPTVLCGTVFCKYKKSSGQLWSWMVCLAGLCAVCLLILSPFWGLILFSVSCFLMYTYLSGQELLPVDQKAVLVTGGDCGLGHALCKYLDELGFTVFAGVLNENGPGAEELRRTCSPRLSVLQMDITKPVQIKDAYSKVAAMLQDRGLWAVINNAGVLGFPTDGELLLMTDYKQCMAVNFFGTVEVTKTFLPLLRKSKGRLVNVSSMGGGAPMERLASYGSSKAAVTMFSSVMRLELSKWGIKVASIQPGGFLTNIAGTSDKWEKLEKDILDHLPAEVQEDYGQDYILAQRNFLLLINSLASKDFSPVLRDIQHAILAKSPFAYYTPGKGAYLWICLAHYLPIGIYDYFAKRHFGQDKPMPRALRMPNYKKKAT
Excerpt: as §1, §2, §3, §4, §5

[3] = molecular target: T3, 17β-hydroxysteroid dehydrogenase type 3 (Homo sapiens, UniProt P37058); experiment: Inhibition of 17β-HSD type 3 in MCF-7 cells stably expressing the isoenzyme (HPLC, tritium labeled androstenedione); settings: 2 nM androstenedione; for inhibition at 1 µM: MCF7, 1 μM compound; for inhibition at 1 µM / inhibition at 10 µM: read-out: % Inhibition of the 17β-HSD enzyme type 3 (HSD3); for inhibition at 10 µM: MCF7, 10 μM compound
T3 construct: expressed in transfected cells; host or cells: MCF-7
T3 sequence (P37058 1-310): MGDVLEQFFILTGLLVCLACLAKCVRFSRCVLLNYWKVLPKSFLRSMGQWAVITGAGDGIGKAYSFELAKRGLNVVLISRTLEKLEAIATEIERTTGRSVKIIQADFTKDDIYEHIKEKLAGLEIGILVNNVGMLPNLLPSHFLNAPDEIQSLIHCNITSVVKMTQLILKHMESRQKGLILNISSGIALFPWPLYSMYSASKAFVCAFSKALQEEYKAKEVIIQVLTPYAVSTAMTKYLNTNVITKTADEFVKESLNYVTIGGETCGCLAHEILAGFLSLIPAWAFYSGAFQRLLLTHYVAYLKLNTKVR
Excerpt: as §1, §2, §3, §4, §5

Compound	inhibition at 1 µM [1]	inhibition at 10 µM [1]	inhibition at 1 µM [2]	inhibition at 10 µM [2]	inhibition at 1 µM [3]	inhibition at 10 µM [3]	% Inhibition of the 17β-HSD enzyme type 1 (HSD1) ([1]; 1 μM compound)	% Inhibition of the 17β-HSD enzyme type 1 (HSD1) ([1]; 10 μM compound)	% Inhibition of the 17β-HSD enzyme type 3 (HSD3) ([3]; 1 μM compound)	% Inhibition of the 17β-HSD enzyme type 3 (HSD3) ([3]; 10 μM compound)
O=c1c2c3c(sc2nc2n1CCCCC2)CCCC3 [Compound 2a, 2,3,4,7,8,9,10,11-Octahydro[1]benzothieno[2′,3′:4,5]pyrimido-[1,2-a]azepin-13(1H)-one]	10%	45.9%	16.2%	23.4%	39%	24.9%	–	–	–	–
O=c1c2c3c(sc2nc2n1CCCCC2)CCC3 [Compound 2b, 1,2,3,6,7,8,9,10-Octahydro-12H-cyclopenta[4′,5′]thieno[2′,3′:4,5]pyrimido[1,2-a]-azepin-12-one]	21%	15%	15.9%	21.4%	4.2%	9.5%	–	–	–	–
O=c1c2c3c(sc2nc2n1CCCCC2)CCCCC3 [Compound 2c, 1,2,3,4,5,8,9,10,11,12-Decahydro-14H-cyclohepta[4′,5′]thieno[2′,3′:4,5]pyrimido-[1,2-a]azepin-14-one]	22.7%	39.8%	8.9%	13.5%	50.8%	47%	–	–	–	–
O=c1c2c3c(sc2nc2n1CCCC2)CCCC3 [Compound 2e, 1,2,3,4,7,8,9,10-Octahydro-12H-[1]benzothieno[2,3-d]pyrido[1,2-a]pyrimidin-12-one]	15.8%	20%	26%	28.9%	46.8%	38.8%	–	–	–	–
O=c1c2c3c(sc2nc2n1CCC2)CCCC3 [Compound 2f, 2,3,6,7,8,9-Hexahydro[1]benzothieno[2,3-d]pyrrolo[1,2-a]pyrimidin-10(1H)-one]	19.9%	19.2%	37%	32.4%	48.2%	40.4%	–	–	–	–
Cc1nc2sc3c(c2c(=O)n1C)CCCC3 [Compound 2g, 5,6,7,8-Tetrahydro-2,3-dimethyl[1]benzothieno[2,3-d]pyrimidin-4(3H)-one]	30.7%	37%	44.9%	24.9%	51.7%	51.3%	–	–	–	–
CCc1nc2sc3c(c2c(=O)n1C)CCCC3 [Compound 2i, 5,6,7,8-Tetrahydro-2-ethyl-3-methyl[1]benzothieno[2,3-d]pyrimidin-4(3H)-one]	12.7%	18.5%	20.6%	29.4%	4.4%	9.9%	–	–	–	–
O=C1CCc2c1sc1nc3n(c(=O)c21)CCCCC3 [Compound 3b, 1,2,6,7,8,9,10-heptahydrocyclopenta[4′,5′]thieno[2′,3′:4,5]pyrimido[1,2-a]-azepin-3,12-dione]	13.5%	20.7%	14.1%	25.4%	0.3%	13.7%	–	–	–	–
O=C1CCCc2c1sc1nc3n(c(=O)c21)CCCCCC3 [Compound 3d, 1,2,7,8,9,10,11,12-octahydro[1]benzothieno[2′,3′:4,5]pyrimido-[1,2-a]azocin-4, 14(3H)-dione]	14.3%	42.9%	14.1%	11.1%	15.3%	–	18.2%	37.6%	22.3%	16.7% and 8.1%
O=C1CCCc2c1sc1nc3n(c(=O)c21)CCCC3 [Compound 3e]	6.3%	35.8%	25.7%	16.3%	38.5%	47.4%	–	–	–	–
O=C1CCCc2c1sc1nc3n(c(=O)c21)CCC3 [Compound 3f, 2,3,8,9-Tetrahydro[1]benzothieno[2,3-d]pyrrolo[1,2-a]pyrimidine-6,10(1H,7H)-dione]	8.7%	22%	31.1%	21.8%	43.9%	40.2%	–	–	–	–
O=CC1=C(Cl)c2sc3nc4n(c(=O)c3c2CC1)CCCCCC4 [Compound 4b, 4-Chloro-1,2,3,7,8,9, 10,11,12-octahydro[1]benzothieno[2′,3′:4,5]pyrimido-[1,2-a]-azocin-14-one-4-carboxyaldehyde]	36.9%	82.1%	3.5%	1.5%	–	42.1%	31.2%	80.1%	5.3% and 14.3%	43.9%
Cn1cnc2sc3c(c2c1=O)CCC(C=O)=C3Cl [Compound 4e, 8-Chloro-5,6-dihydro-3-methyl[1]benzothieno[2,3-d]pyrimidin-4(3H)-one-7-carboxyaldehyde]	23.5%	44.4%	9.6%	28.3%	9.8%	14.2%	24.6%	52.1%	11.1%	17.3%
CCSC1=C(C=O)CCc2c1sc1nc3n(c(=O)c21)CCCCC3 [Compound 5b, 1,2,7,8,9,10,11,13-Octahydro-13-oxo-4-(ethylthio)[1]benzothieno[2′,3′:4,5]-pyrimido-[1,2-a]azepine-3-carboxaldehyde]	66.1%	100%	19.7%	25.2%	43.4%	100%	–	–	–	–
CC1CCc2c(sc3nc4n(c(=O)c23)CCCCC4)C1O (stereo not shown) [Compound 32, 4-Hydroxy-3-methyl-2,3,4,7,8,9,10,1-octahydro [1]benzothieno[2′,3′: 4,5]pyrimido-[1,2-a]azepin-13(1H)-one]	19.7%	22.5%	14%	-5.1%	–	–	–	–	–	–
CCCSC1=C(C=O)CCc2c1sc1nc3n(c(=O)c21)CCC(C(=O)O)CC3 (stereo not shown) [Compound 33, 3-Formyl-1,2,7,8,9,10,11,13-octahydro-13-oxo-4-(propylthio)-[1]benzothieno[2′,3′: 4,5] pyrimido[1,2-a]azepine-9-carboxylic acid]	15.3%	22.6%	5%	-0.1%	–	–	–	–	–	–
CCCSC1=C(C=O)CCc2c1sc1nc3n(c(=O)c21)CCC(C)CC3 (stereo not shown) [Compound 34, 9-Methyl-1,2,7,8,9,10,11,13-octahydro-13-oxo-4-(propylthio)-[1]benzothieno[2′,3′: 4,5]-pyrimido[1,2-a]azepine-3-carbaldehyde]	14.9%	48.1%	13%	-0.5%	–	–	–	–	–	–
